Laboratory results as given in ChEMBL document CHEMBL5728816, “Thienopyridine inhibitors of RIPK2” (2021).

Biological target: Receptor-interacting serine/threonine-protein kinase 2 (Homo sapiens, UniProt O43353)
Assay: TR-FRET Assay: All data was collected using a standard TR-FRET screening assay: LanthaScreen Tracer 199 at 50 nM, Eu-anti-His Antibody at 2 nM, 5 nM RIPK2 enzyme, and 1× Kinase Reaction Buffer. There was a 1 hour incubation prior to read. TR-FRET signal of the interaction (340Ex/665Em/615Em) was read at room temperature with standard setting. Background was subtracted of wells containing no enzyme. Percent inhibition was based on uninhibited controls log (inhibitor) vs. response. Variable slope equation was used with no constraints: Log Y=Bottom+(Top−Bottom)/(1+10^((Log IC50−X)*Hill Slope)).Analytical Instrumentation:NMR: Bruker UltraShield™-300 or Bruker Ascend™-400 spectrometers.LCMS: Shimadzu LCMS-2020 or Agilent technologies 1260 Infinity-6120 Quadrupole LC/MS.Purification:TLC plates: Thin-layer chromatography with E. Merck silica gel 60 F254 pre-coated plates (0.25 mm).Flash chromatography: Agela Technologies CHEETAH-MP200 CH16200 2T-A0099 or Biotage Isolera ISO-PSV ISPS 1832112.

Sequence of Receptor-interacting serine/threonine-protein kinase 2 (O43353 whole entry): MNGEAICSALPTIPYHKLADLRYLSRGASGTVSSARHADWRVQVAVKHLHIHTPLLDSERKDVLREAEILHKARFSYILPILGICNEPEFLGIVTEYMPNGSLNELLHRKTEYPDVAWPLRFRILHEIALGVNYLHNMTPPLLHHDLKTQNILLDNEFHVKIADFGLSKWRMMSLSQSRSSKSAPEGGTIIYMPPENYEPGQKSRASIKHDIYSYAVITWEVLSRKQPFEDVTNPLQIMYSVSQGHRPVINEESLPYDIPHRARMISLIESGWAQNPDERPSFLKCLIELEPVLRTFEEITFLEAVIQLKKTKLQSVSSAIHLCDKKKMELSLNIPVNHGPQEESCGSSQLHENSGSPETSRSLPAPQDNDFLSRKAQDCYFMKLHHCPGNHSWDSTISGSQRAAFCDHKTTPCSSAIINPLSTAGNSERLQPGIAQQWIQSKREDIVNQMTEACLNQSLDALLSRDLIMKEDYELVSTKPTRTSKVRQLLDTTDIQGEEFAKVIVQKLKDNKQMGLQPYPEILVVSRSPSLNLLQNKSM

Question: How did the IC50 turn out when `C[C@@H]1[C@H](c2cc3c(Nc4ccc5scnc5c4F)ccnc3s2)CCCN1C` was run?
Answer: < 0.01 µM
